Assay results taken from ChEMBL document CHEMBL1201862, “PubChem BioAssay data set” (2004).
Activity calls are given as the source filed them.

Experiments:
[1] = test system: INS1; experiment: protection of INS-1E cells from cytokine death, dose response, ATP luminescence, dry powder (AID 488844); type: functional, cell-based; settings: Rattus norvegicus
[2] = test system: INS1; experiment: protection from cytokine-driven beta-cell apoptosis, dose response, JC-1 fluorescence, INS-1E, dry powder, set 2 (AID 488867); type: functional, cell-based; settings: Rattus norvegicus
[3] = test system: INS1; experiment: protection from cytokine-induced mitochondrial depolarization, dose response, cell-based, INS-1E, JC-1 fluorescence ratio, dry powder (AID 488931); type: functional; settings: Rattus norvegicus
[4] = target: T1, Sentrin-specific protease 8 (Homo sapiens, UniProt Q96LD8); experiment: SENP8 protease inhibitors, SAR follow-up, biochemical, luminescence (AID 504501); type: functional
T1 sequence (Q96LD8 whole entry): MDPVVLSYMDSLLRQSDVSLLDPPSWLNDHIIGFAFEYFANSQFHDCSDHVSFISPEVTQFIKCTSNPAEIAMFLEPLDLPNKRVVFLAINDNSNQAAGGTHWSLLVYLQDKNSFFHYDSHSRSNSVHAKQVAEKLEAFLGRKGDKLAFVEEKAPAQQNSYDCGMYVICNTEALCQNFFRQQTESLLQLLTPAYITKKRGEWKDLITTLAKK

[5] = target: T2, Caspase-3 (Homo sapiens, UniProt P42574); experiment: SAR Analysis of small molecule inhibitors of Sentrin-specific proteases (SENPs) using a Caspase-3 Selectivity assay. [Related pubchem assays (depositor defined):AID2540, AID2599, AID434973, AID489001]; type: functional
T2 sequence (P42574 whole entry): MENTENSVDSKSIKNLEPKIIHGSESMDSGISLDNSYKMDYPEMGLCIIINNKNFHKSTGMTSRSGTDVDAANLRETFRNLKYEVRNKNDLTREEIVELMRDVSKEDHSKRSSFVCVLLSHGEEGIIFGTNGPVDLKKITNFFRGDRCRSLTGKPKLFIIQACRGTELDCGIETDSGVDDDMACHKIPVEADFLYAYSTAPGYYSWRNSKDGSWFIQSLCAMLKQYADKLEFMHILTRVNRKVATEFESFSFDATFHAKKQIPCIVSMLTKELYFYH

[6] = target: T3, Sentrin-specific protease 6 (Homo sapiens, UniProt Q9GZR1); experiment: SAR Analysis of small molecule inhibitors of Sentrin-specific protease 6 (SENP6) using a Luminescent assay. [Related pubchem assays (depositor defined):AID2582, AID2599]; type: functional
T3 sequence (Q9GZR1 whole entry): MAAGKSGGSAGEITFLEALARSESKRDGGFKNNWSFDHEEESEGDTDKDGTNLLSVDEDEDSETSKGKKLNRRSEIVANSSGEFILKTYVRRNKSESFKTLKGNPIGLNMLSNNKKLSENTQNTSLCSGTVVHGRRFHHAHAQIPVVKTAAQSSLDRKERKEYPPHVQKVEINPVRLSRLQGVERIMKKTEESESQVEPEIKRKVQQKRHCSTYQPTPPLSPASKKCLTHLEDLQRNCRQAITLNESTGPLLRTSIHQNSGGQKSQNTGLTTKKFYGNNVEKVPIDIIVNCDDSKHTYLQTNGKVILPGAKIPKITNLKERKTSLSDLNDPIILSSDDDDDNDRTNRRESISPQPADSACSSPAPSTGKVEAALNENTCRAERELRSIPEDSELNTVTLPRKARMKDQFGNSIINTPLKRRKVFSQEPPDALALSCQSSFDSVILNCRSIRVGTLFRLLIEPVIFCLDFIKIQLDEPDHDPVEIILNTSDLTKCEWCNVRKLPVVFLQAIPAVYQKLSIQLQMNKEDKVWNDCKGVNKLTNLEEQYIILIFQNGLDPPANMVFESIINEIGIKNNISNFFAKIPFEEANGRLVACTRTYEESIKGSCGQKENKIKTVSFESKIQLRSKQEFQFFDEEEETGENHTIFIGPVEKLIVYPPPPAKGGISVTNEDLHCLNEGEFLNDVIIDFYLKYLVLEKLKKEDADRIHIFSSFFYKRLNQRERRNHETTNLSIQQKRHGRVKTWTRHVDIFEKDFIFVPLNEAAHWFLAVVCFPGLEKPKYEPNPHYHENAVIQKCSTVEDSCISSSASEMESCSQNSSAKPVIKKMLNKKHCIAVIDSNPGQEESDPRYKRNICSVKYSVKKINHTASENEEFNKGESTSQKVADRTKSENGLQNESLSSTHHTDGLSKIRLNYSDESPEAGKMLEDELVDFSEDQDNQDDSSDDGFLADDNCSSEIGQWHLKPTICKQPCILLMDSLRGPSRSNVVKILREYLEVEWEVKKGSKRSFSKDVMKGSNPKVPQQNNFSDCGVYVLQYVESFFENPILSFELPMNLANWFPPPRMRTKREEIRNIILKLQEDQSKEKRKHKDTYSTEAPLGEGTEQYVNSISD

[7] = target: T4, Sentrin-specific protease 7 (Homo sapiens, UniProt Q9BQF6); experiment: SENP7 protease inhibitors, SAR follow-up, biochemical, luminescence (AID 504497); type: functional
T4 sequence (Q9BQF6 whole entry): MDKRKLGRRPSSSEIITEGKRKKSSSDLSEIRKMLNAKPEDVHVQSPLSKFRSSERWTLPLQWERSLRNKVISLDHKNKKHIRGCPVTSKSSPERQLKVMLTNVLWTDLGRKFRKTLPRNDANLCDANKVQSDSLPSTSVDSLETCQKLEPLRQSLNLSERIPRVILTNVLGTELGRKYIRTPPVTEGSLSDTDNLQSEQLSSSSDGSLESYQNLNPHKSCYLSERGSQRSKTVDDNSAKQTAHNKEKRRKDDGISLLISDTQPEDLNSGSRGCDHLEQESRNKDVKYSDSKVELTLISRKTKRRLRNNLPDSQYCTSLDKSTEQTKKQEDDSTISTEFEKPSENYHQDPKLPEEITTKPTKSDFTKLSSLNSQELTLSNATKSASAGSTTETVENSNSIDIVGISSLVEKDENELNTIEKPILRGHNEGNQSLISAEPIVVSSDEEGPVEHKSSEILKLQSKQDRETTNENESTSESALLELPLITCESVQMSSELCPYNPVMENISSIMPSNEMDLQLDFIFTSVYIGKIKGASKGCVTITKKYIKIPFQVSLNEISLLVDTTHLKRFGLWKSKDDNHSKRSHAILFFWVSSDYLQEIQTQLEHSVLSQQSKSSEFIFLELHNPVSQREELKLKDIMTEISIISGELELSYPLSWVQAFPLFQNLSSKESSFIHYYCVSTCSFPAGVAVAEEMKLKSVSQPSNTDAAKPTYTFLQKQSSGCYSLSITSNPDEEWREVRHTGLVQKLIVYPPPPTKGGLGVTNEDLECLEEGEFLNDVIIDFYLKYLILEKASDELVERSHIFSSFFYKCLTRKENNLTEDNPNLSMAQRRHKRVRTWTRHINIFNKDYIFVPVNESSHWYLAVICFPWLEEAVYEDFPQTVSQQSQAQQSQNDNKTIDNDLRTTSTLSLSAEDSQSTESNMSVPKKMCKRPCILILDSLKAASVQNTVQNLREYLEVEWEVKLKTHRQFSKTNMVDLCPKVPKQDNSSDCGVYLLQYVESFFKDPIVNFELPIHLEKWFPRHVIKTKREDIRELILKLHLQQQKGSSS

[8] = inhibitors of firefly luciferase expression or activity, dose response, H4 neuroglioma cells, luminescence (AID 1990); type: functional, cell-based
[9] = insulin promoter down-regulators in MIN6 cells, imaging, high-content screening, mouse beta cells (AID 1628); type: functional
[10] = Luminescence Cell-Based Dose Response HTS to Identify Inhibitors of 5'UTR Stem-Loop Driven Prion Protein mRNA Translation in H4 Neuroglioblastoma Cells. [Related pubchem assays: 1827 (Project Summary), 1813 (Primary HTS)]; type: functional
[11] = cytotoxicity in MIN6 insulinoma cells, dose response, cytotoxicity control, cell-based, mouse insulinoma (AID 2122); type: functional;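 further: confirmatory high-throughput counterscreen run to flag cytotoxic compounds; mouse MIN-6 beta cells carrying an insulin promoter eGFP reporter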
[12] = inhibitors of SNCA 5'UTR-driven reporter translation, confirmation, H4 neuroglioma cells, luminescence (AID 1988); type: functional, cell-based
[13] = target: Luciferin 4-monooxygenase (Photuris pensylvanica, UniProt Q27757); experiment: firefly luciferase enzyme inhibitors, dose response, counter-screen for HSF-1 reporter inhibitor project, biochemical, Cell Titer Glo, luminescence, cherry-picks (AID 588847)
Sequence of Luciferin 4-monooxygenase (Q27757 whole entry): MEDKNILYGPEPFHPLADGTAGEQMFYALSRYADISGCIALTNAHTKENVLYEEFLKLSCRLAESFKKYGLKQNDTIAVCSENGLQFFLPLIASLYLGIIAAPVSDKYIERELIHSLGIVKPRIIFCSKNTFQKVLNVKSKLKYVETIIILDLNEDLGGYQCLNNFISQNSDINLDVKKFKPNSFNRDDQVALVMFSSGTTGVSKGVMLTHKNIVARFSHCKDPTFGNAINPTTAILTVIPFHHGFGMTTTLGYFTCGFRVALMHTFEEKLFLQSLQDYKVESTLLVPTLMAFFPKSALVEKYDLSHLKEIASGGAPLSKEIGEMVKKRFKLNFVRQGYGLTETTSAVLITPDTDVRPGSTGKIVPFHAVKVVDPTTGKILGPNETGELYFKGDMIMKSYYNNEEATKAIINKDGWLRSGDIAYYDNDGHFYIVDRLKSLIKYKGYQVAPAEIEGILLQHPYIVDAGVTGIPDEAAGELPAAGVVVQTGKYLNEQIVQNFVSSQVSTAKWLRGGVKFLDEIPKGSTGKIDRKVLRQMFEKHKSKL

COc1ccc(S(=O)(=O)N(C)C[C@@H]2Oc3c(NC(=O)Nc4ccccc4)cccc3C(=O)N([C@H](C)CO)C[C@H]2C)cc1
AC50 [1]: 22.8 µM (active)
AC50 [2]: > 260 µM (inactive)
AC50 [3]: > 195 µM (inactive)

Cc1ccc(NC(=O)c2ccc(OC3CSC3)cc2)cc1
IC50 [4]: > 99 µM (inactive)
IC50 [5]: > 99 µM (inactive)
IC50 [6]: > 99 µM (inactive)
IC50 [7]: > 99 µM (inactive)

C[C@@H]1C[C@H]2[C@@H]3CCC4=CC(=O)C=C[C@]4(C)[C@@]3(F)[C@@H](O)C[C@]2(C)[C@@]1(O)C(=O)CO [DEXAMETHASONE]
EC50 [8]: > 120 µM (not active)
IC50 [9]: < 0.25 µM (active)
EC50 [10]: > 120 µM (not active)
IC50 [11]: > 16 µM (inactive)
EC50 [12]: > 120 µM (not active)
AC50 [13]: > 52 µM (inactive)
